Source: US20260132132A1, “3A,4,5,6-TETRAHYDRO-1 H-PYRAZOLO[3,4-C]PYRIDIN-7(7AH)-ONE DERIVATIVES AS FACTOR XIIA INHIBITORS” (KALVISTA PHARMACEUTICALS LIMITED, priority 2022, published 2026)
pIC50: −log10 of the molar value.

Biological target: T1, Human Factor XIIa (hFXIIa) (Homo sapiens, UniProt P00748)
T1 construct: purchased Enzyme Research Laboratories
T1 sequence (P00748 373-615 limits assumed): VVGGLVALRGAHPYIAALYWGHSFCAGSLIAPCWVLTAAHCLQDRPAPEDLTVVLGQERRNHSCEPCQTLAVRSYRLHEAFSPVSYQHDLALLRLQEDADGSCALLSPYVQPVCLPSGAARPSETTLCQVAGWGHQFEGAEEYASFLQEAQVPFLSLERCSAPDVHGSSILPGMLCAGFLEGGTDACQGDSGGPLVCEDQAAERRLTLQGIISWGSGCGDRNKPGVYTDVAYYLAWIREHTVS
T1 sequence (P00748 20-372 partner limits assumed): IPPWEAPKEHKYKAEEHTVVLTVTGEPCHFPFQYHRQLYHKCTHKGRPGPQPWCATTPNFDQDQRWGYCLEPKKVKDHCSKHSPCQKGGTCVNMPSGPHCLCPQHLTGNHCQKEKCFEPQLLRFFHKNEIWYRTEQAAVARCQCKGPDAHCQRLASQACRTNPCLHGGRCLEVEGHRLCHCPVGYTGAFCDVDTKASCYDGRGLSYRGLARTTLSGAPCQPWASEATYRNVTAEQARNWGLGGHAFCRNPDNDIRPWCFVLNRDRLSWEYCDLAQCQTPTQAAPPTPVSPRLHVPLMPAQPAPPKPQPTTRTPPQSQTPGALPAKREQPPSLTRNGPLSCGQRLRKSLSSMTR
Assay: Determination of Human Factor XIIa (hFXIIa) inhibition, fluorogenic substrate IC50 assay
Assay type: biochemical
Conditions: fluorogenic substrate H-DPro-Phe-Arg-AFC at Km, 25° C., read-out: Human FXIIa IC50
Description: Determination of Human Factor XIIa (hFXIIa) inhibition
The Km for the cleavage of the substrate by hFXIIa was determined by standard transformation of the Michaelis-Menten equation, with subsequent inhibition assays performed at substrate Km concentration.

SMILES | pIC50
CN1CCc2ccc(N3CCc4c(C(=O)O)nn(-c5cccc(Cl)c5)c4C3=O)cc2C1=O [Example 1182, 1-(3-chlorophenyl)-6-(2-methyl-1-oxo-1,2,3,4-tetrahydroisoquinolin-7-yl)-7-oxo-4,5,6,7-tetrahydro-1H-pyrazolo[3,4-c]pyridine-3-carboxylic acid] | 5.00 to 5.52
CN1CCc2ccc(N3CCc4c(CO)nn(-c5cccc(Cl)c5)c4C3=O)cc2C1=O [Example 1183, 7-(1-(3-chlorophenyl)-3-(hydroxymethyl)-7-oxo-1,4,5,7-tetrahydro-6H-pyrazolo[3,4-c]pyridin-6-yl)-2-methyl-3,4-dihydroisoquinolin-1(2H)-one] | 5.52 to 6.00
COCc1nn(-c2cccc(Cl)c2)c2c1CCN(c1ccc3c(c1)C(=O)N(C)CC3)C2=O [Example 1184, 7-(1-(3-chlorophenyl)-3-(methoxymethyl)-7-oxo-1,4,5,7-tetrahydro-6H-pyrazolo[3,4-c]pyridin-6-yl)-2-methyl-3,4-dihydroisoquinolin-1(2H)-one] | 5.52 to 6.00
COC1CN(CCO)Cc2cc(N3CCc4c(C(=O)NCC5CC5)nn(-c5cccc(Cl)c5)c4C3=O)ccc21 (centres unmarked) [Example 1191, 1-(3-chlorophenyl)-N-(cyclopropylmethyl)-6-(2-(2-hydroxyethyl)-4-methoxy-1,2,3,4-tetrahydroisoquinolin-7-yl)-7-oxo-4,5,6,7-tetrahydro-1H-pyrazolo[3,4-c]pyridine-3-carboxamide] | 6.00 to 6.52
CCOC(=O)c1nn(-c2cccc(Cl)c2)c2c1CCN(c1cccc(C(=O)N(C)C)c1)C2=O [Example 1196, ethyl 1-(3-chlorophenyl)-6-(3-(dimethylcarbamoyl)phenyl)-7-oxo-4,5,6,7-tetrahydro-1H-pyrazolo[3,4-c]pyridine-3-carboxylate] | 5.00 to 5.52
C[C@@H](NC(=O)c1nn(-c2cccc(Cl)c2)c2c1CCN(c1ccc3c(c1)C(=O)N(C)CC3)C2=O)c1cccnc1 [Example 1214, (R)-1-(3-chlorophenyl)-6-(2-methyl-1-oxo-1,2,3,4-tetrahydroisoquinolin-7-yl)-7-oxo-N-(1-(pyridin-3-yl)ethyl)-4,5,6,7-tetrahydro-1H-pyrazolo[3,4-c]pyridine-3-carboxamide] | 6.00 to 6.52
C[C@H](NC(=O)c1nn(-c2cccc(Cl)c2)c2c1CCN(c1ccc3c(c1)C(=O)N(C)CC3)C2=O)c1cccnc1 [Example 1215, (S)-1-(3-chlorophenyl)-6-(2-methyl-1-oxo-1,2,3,4-tetrahydroisoquinolin-7-yl)-7-oxo-N-(1-(pyridin-3-yl)ethyl)-4,5,6,7-tetrahydro-1H-pyrazolo[3,4-c]pyridine-3-carboxamide] | 6.52 to 7.00
CCN1CCc2ccc(N3CCc4c(C(=O)NCc5cc(C)n(C)n5)nn(-c5cccc(Cl)c5)c4C3=O)cc2C1=O [Example 1219, 1-(3-chlorophenyl)-N-((1,5-dimethyl-1H-pyrazol-3-yl)methyl)-6-(2-ethyl-1-oxo-1,2,3,4-tetrahydroisoquinolin-7-yl)-7-oxo-4,5,6,7-tetrahydro-1H-pyrazolo[3,4-c]pyridine-3-carboxamide] | 7.00 to 8.00
Cc1cc(CNC(=O)c2nn(-c3cccc(Cl)c3)c3c2CCN(c2ccc4c(c2)N(C)C(=O)CCC4)C3=O)nn1C [Example 1241, 1-(3-chlorophenyl)-N-((1,5-dimethyl-1H-pyrazol-3-yl)methyl)-6-(1-methyl-2-oxo-2,3,4,5-tetrahydro-1H-benzo[b]azepin-8-yl)-7-oxo-4,5,6,7-tetrahydro-1H-pyrazolo[3,4-c]pyridine-3-carboxamide] | 5.52 to 6.00
Cc1ccc(N2CCc3c(C(=O)NCC4CC4)nn(-c4cccc(Cl)c4)c3C2=O)cc1C(=O)N(C)C [Example 1244, 1-(3-chlorophenyl)-N-(cyclopropylmethyl)-6-(3-(dimethylcarbamoyl)-4-methylphenyl)-7-oxo-4,5,6,7-tetrahydro-1H-pyrazolo[3,4-c]pyridine-3-carboxamide] | 5.00 to 5.52

Now from value to compound:

pIC50 | SMILES
7.00 to 8.00 | O=C(NCc1ncccc1Cl)c1nn(-c2cccc(Cl)c2)c2c1CCN(c1ccc3c(c1)CN(CCO)CC3)C2=O [Example 1170, 1-(3-chlorophenyl)-N-((3-chloropyridin-2-yl)methyl)-6-(2-(2-hydroxyethyl)-1,2,3,4-tetrahydroisoquinolin-7-yl)-7-oxo-4,5,6,7-tetrahydro-1H-pyrazolo[3,4-c]pyridine-3-carboxamide]
7.00 to 8.00 | Cc1cc(CNC(=O)c2nn(-c3cccc(Cl)c3)c3c2CCN(c2ccc4c(c2)CN(CCO)CC4)C3=O)ccn1 [Example 1171, 1-(3-chlorophenyl)-6-(2-(2-hydroxyethyl)-1,2,3,4-tetrahydroisoquinolin-7-yl)-N-((2-methylpyridin-4-yl)methyl)-7-oxo-4,5,6,7-tetrahydro-1H-pyrazolo[3,4-c]pyridine-3-carboxamide]
7.00 to 8.00 | COc1cnccc1CNC(=O)c1nn(-c2cccc(Cl)c2)c2c1CCN(c1ccc3c(c1)CN(CCO)CC3)C2=O [Example 1172, 1-(3-chlorophenyl)-6-(2-(2-hydroxyethyl)-1,2,3,4-tetrahydroisoquinolin-7-yl)-N-((3-methoxypyridin-4-yl)methyl)-7-oxo-4,5,6,7-tetrahydro-1H-pyrazolo[3,4-c]pyridine-3-carboxamide]
6.52 to 7.00 | COc1ccc(CNC(=O)c2nn(-c3cccc(Cl)c3)c3c2CCN(c2cccc(CN4CCCCC4)c2)C3=O)cn1 [Example 1173, 1-(3-chlorophenyl)-N-((6-methoxypyridin-3-yl)methyl)-7-oxo-6-(3-(piperidin-1-ylmethyl)phenyl)-4,5,6,7-tetrahydro-1H-pyrazolo[3,4-c]pyridine-3-carboxamide]
6.52 to 7.00 | O=C(NCc1cnccc1Cl)c1nn(-c2cccc(Cl)c2)c2c1CCN(c1cccc(CN3CCCCC3)c1)C2=O [Example 1174, 1-(3-chlorophenyl)-N-((4-chloropyridin-3-yl)methyl)-7-oxo-6-(3-(piperidin-1-ylmethyl)phenyl)-4,5,6,7-tetrahydro-1H-pyrazolo[3,4-c]pyridine-3-carboxamide]
6.52 to 7.00 | O=C(NCC1CC1)c1nn(-c2cccc(Cl)c2)c2c1CCN(c1ccc3c(c1)CN(CCF)CC3)C2=O [Example 1175, 1-(3-chlorophenyl)-N-(cyclopropylmethyl)-6-(2-(2-fluoroethyl)-1,2,3,4-tetrahydroisoquinolin-7-yl)-7-oxo-4,5,6,7-tetrahydro-1H-pyrazolo[3,4-c]pyridine-3-carboxamide]
6.52 to 7.00 | Cc1cn(C)nc1CNC(=O)c1nn(-c2cccc(Cl)c2)c2c1CCN(c1cccc(CN3CCCCC3)c1)C2=O [Example 1178, 1-(3-chlorophenyl)-N-((1,4-dimethyl-1H-pyrazol-3-yl)methyl)-7-oxo-6-(3-(piperidin-1-ylmethyl)phenyl)-4,5,6,7-tetrahydro-1H-pyrazolo[3,4-c]pyridine-3-carboxamide]
4.40 to 5.00 | CN1CCc2cc(N3CCc4c(C(=O)NCC5CC5)nn(-c5cccc(Cl)c5)c4C3=O)ccc2C1=O [Example 1190, 1-(3-chlorophenyl)-N-(cyclopropylmethyl)-6-(2-methyl-1-oxo-1,2,3,4-tetrahydroisoquinolin-6-yl)-7-oxo-4,5,6,7-tetrahydro-1H-pyrazolo[3,4-c]pyridine-3-carboxamide]
5.00 to 5.52 | CN1Cc2ccc(N3CCc4c(C(=O)NCC5CC5)nn(-c5cccc(Cl)c5)c4C3=O)cc2C1=O [Example 1192, 1-(3-chlorophenyl)-N-(cyclopropylmethyl)-6-(2-methyl-3-oxoisoindolin-5-yl)-7-oxo-4,5,6,7-tetrahydro-1H-pyrazolo[3,4-c]pyridine-3-carboxamide]
7.00 to 8.00 | COc1cccnc1CNC(=O)c1nn(-c2cccc(Cl)c2)c2c1CCN(c1cc3c(cn1)CCN(CCO)C3)C2=O [Example 1221, 1-(3-chlorophenyl)-6-(6-(2-hydroxyethyl)-5,6,7,8-tetrahydro-2,6-naphthyridin-3-yl)-N-((3-methoxypyridin-2-yl)methyl)-7-oxo-4,5,6,7-tetrahydro-1H-pyrazolo[3,4-c]pyridine-3-carboxamide]
6.00 to 6.52 | Cc1ccncc1CNC(=O)c1nn(-c2cccc(Cl)c2)c2c1CCN(c1ccc3c(c1)C(=O)NCC3)C2=O [Example 1240, 1-(3-chlorophenyl)-N-((4-methylpyridin-3-yl)methyl)-7-oxo-6-(1-oxo-1,2,3,4-tetrahydroisoquinolin-7-yl)-4,5,6,7-tetrahydro-1H-pyrazolo[3,4-c]pyridine-3-carboxamide]
5.00 to 5.52 | CN1C(=O)CCCc2ccc(N3CCc4c(C(=O)NCC5CC5)nn(-c5cccc(Cl)c5)c4C3=O)cc21 [Example 1242, 1-(3-chlorophenyl)-N-(cyclopropylmethyl)-6-(1-methyl-2-oxo-2,3,4,5-tetrahydro-1H-benzo[b]azepin-8-yl)-7-oxo-4,5,6,7-tetrahydro-1H-pyrazolo[3,4-c]pyridine-3-carboxamide]
5.52 to 6.00 | O=C(NCC1CC1)c1nn(-c2cccc(Cl)c2)c2c1CCN(c1cccc(CN3CCC(F)C3)c1)C2=O (centres unmarked) [Example 1243, 1-(3-chlorophenyl)-N-(cyclopropylmethyl)-6-(3-((3-fluoropyrrolidin-1-yl)methyl)phenyl)-7-oxo-4,5,6,7-tetrahydro-1H-pyrazolo[3,4-c]pyridine-3-carboxamide]
